# Source: PMC9105583, “Stereoselective Synthesis and Anticancer Activity of 2,6-Disubstituted trans-3-Methylidenetetrahydropyran-4-ones” (Materials, 2022)
# Where two headings read alike, the source gives them in different places.
# Experiments:
# Assay type in all cases: cell-based, human
# HL-60 cells [1] = experiment: MTT assay, metabolic activity (cytotoxicity); settings: for IC50: MTT
# Protocol: (§1) Metabolic activity by MTT assay
# (§2) The MTT (3-([…])-2,5-diphenyl tetrazolium bromide) assay was performed to assess the cytotoxicity of the investigated compounds. Briefly, HL-60, MCF-7 and HUVEC cells were seeded in 24-well plates at density of 8 × 10^4/mL. After 24 h incubation, cells were treated with various concentrations of the compounds and incubated for another 24 h or 48 h. Then, the cells were incubated with MTT solution (100 µL; 5 mg/mL in PBS) for 1.5 h and centrifuged. The formazan product was dissolved in DMSO, and the absorption was measured using FlexStation 3 Multi-Mode Microplate Reader (Molecular Devices, LLC, San Jose, CA, USA) at 560 nm. Assays were performed twice in triplicate for each analog.
# (§3) The cytotoxic activity of the obtained methylidenetetrahydropyran-4-ones was investigated in two cancer cell lines, human promyelocytic leukemia (HL-60) and breast cancer adenocarcinoma (MCF-7), and in healthy umbilical vein endothelial cells (HUVEC), for comparison. An anticancer drug, carboplatin, was used as a reference compound. Metabolic activity of the cells was assessed after 48 h incubation with various concentrations of the analogs (Table 6). Purity of all final compounds was determined on the basis of their ^1H NMR spectra (signal-to-noise ratio and presence of unidentified signals) and was at least 98%, in most cases even over 99%.
# MCF-7 cells = experiment: MTT assay, metabolic activity (cytotoxicity); settings: Homo sapiens, MCF7, 48 h incubation, mean ± SEM
# Protocol: as §1, §2, §3
# HUVEC cells = experiment: MTT assay, metabolic activity (cytotoxicity), normal cell line; settings: Homo sapiens, HUVEC, 48 h incubation, mean ± SEM
# Protocol: as §1, §2, §3
# HL-60 cells [2] = experiment: BrdU incorporation (proliferation), flow cytometry; settings: 24 h, then BrdU 8 h
# Protocol: (§4) Analysis of apoptosis, DNA damage and cell cycle
# (§5) Apoptosis, DNA damage, proliferation and cell cycle kinetics were investigated using the Apoptosis, DNA Damage and Cell Proliferation Kit (BD Biosciences, San Jose, CA, USA) according to the manufacturer’s protocol. Briefly, HL-60 cells (2.0 × 10^5 cells/mL) were seeded in 6-well plates and left to grow for 24 h. Then, the cells were treated with 13d or 13g at IC50 and 2IC50 concentrations. After 24 h incubation, the cells were treated with BrdU solution for 8 h. Then, the cells were collected by centrifugation, fixed and permeabilized. To expose the incorporated BrdU, the cells were incubated with DNase (300 µg/mL in PBS) for 1 h at 37 °C. Afterwards, the cells were stained with fluorescent antibodies, including Anti-BrdU, Anti-Cleaved PARP (Asp214) and Anti-H2AX (pS139) for 20 min at room temperature. Total DNA for cell cycle analysis was stained using DAPI solution (1 µg/mL in staining buffer). Finally, the cells were analyzed by flow cytometry using CytoFLEX (Beckman Coulter, Inc., Brea, CA, USA) and the data analysis was performed with Kaluza Analysis Software v2 (Beckam Coulter, Inc., Brea, CA. USA).
# To examine the influences of the investigated compounds on HL-60 cell proliferation, cells were exposed to a thymidine analog, bromodeoxyuridine (BrdU), that incorporates into newly synthesized DNA during proliferation.
# HL-60 cells [3] = experiment: Cell cycle distribution, DAPI DNA staining and flow cytometry; settings: 24 h
# Protocol: as §4, §5
# The cell cycle has a critical role in regulation of cell growth, proliferation and division of cells after DNA damage. Therefore, it often serves as a target in cancer therapy development. The cell cycle distribution was investigated using DAPI DNA staining and flow cytometry analysis.
# HL-60 cells [4] = experiment: Annexin V / propidium iodide apoptosis assay, flow cytometry; settings: for early apoptotic cells (Annexin V-positive and PI-negative) / late apoptotic cells (Annexin V-positive and PI-positive): compound at 2IC50, 24 h; for early apoptotic cells (Annexin V-positive and PI-negative): control 3.3 ± 0.36%; for late apoptotic cells (Annexin V-positive and PI-positive): control 5.5 ± 1.02%; for change in the number of apoptotic cells: compound at IC50, 24 h
# Protocol: Apoptotic cells were detected using FITC Annexin V Apoptosis Detection Kit I (BD Biosciences, San Jose, CA, USA). HL-60 cells (2.0 × 10^5 cells/mL) seeded in 6-well plates and cultured overnight were treated with various concentrations of 13d or 13g for 24 h. Then, the cells were washed with PBS and resuspended in the binding buffer. After staining with FITC Annexin V and propidium iodide (15 min, room temperature) cells were analyzed by flow cytometry using CytoFlex and Kaluza Analysis Software v2 (Beckman Coulter Inc., Brea, CA, USA).
# One of the typical features of apoptotic cell death is translocation of phosphatidylserine from the inside surface to the extracellular surface of the cell membrane, which can be detected with Annexin V [27]. Therefore, to examine the ability of the investigated compounds to induce apoptosis in HL-60 cells, we performed Annexin V and propidium iodide (PI) staining (Figure 5C and Figure 6C). In the control group, 90.3 ± 1.15% of HL-60 cells were healthy, 3.3 ± 0.36% were in early stage of apoptosis (Annexin V-positive and PI-negative) and 5.5 ± 1.02% were in late-stage apoptosis (Annaxin V-positive and PI-positive).
# [5] = test system: cleaved PARP in HL-60 cells; experiment: Cleaved PARP (Asp214) detection, flow cytometry; settings: compound at 2IC50 concentration, 24 h; control 0.7 ± 0.13%
# Protocol: as §4, §5
# Another hallmark of apoptosis is cleavage of poly(ADP-ribose) polymerase 1 (PARP1) into 24 kDa and 89 kDa fragments executed by caspases 3 and 7. […]
# HL-60 cells [6] = experiment: Cell morphology by light microscope; settings: IC50 and 2IC50, 24 h
# Protocol: HL-60 cells were treated with compound 13d or 13g at IC50 and 2IC50 for 24 h. Then, the cells were examined for morphological changes using a light microscope at 40x magnification and photographed.
# HL-60 cells grow in suspension and usually have a roughly spherical shape.
# [7] = Homo sapiens, HL-60, 24 h, 24 h incubation, read-out: IC50 HL-60 after 24 h incubation
# [8] = Homo sapiens, HL-60, 48 h, 48 h incubation, mean ± SEM, read-out: IC50 HL-60
# [9] = compound at 2IC50 concentration
smiles,measurement,setting,value
"C=C1C(=O)C[C@H](C(C)C)O[C@H]1C(C)C (relative stereo) [Analog 13d, Trans-2,6-diisopropyl-3-methylidenetetrahydro-4H-pyran-4-one]","selectivity, inhibitory activity in HL-60 versus HUVEC cells (cancer/healthy cell IC50 ratio)","HL-60 cells [1]; HL-60 compared to normal HUVEC cells, 48 h",over 3 fold
same,IC50,HL-60 cells [1]; [7],15.7 ± 0.61 µM
same,IC50,HL-60 cells [1]; [8],7.65 ± 0.05 µM
same,IC50,MCF-7 cells,14 ± 1 µM
same,IC50,HUVEC cells,24.7 ± 0.65 µM
same,BrdU-incorporating cell population,HL-60 cells [2]; [9],26.4 ± 6.9%
same,BrdU-incorporating cell population,HL-60 cells [2]; compound at IC50 concentration,31.5 ± 1.65%
same,population of cells in G0/G1 phase,HL-60 cells [3]; [9],diminished
same,cells in the G2/M phase,"HL-60 cells [3]; compound at 2IC50 concentration, control 14.9 ± 1.37%",24.1 ± 1.40%
same,early apoptotic cells (Annexin V-positive and PI-negative),HL-60 cells [4],13.0 ± 2.64%
same,late apoptotic cells (Annexin V-positive and PI-positive),HL-60 cells [4],24.6 ± 2.34%
same,change in the number of apoptotic cells,HL-60 cells [4],did not induce a significant change
same,population of cells with cleaved PARP,[5],49.0 ± 1.61%
same,morphological changes of the cells,HL-60 cells [6],induced several morphological changes
"C=C1C(=O)C[C@H](c2ccccc2)O[C@H]1C(C)C (relative stereo) [Analog 13g, Trans-2-isopropyl-3-methylidene-6-phenyltetrahydro-4H-pyran-4-one]",IC50,"HL-60 cells [1]; 48 h incubation, mean ± SEM, read-out: IC50 HL-60",3.69 ± 0.08 µM
same,IC50,HL-60 cells [1]; [7],6.49 ± 0.31 µM
same,IC50,HL-60 cells [1]; [8],< 4 µM
same,IC50,MCF-7 cells,8.63 ± 0.07 µM
same,IC50,HUVEC cells,3.84 ± 0.01 µM
same,BrdU-incorporating cell population,HL-60 cells [2]; [9],31.9 ± 6.02%
same,BrdU-incorporating cell population,HL-60 cells [2]; compound at IC50 concentration,35.3 ± 1.23%
same,change of G2/M cell population,HL-60 cells [3]; not statistically significant,slight increase
same,early apoptotic cells (Annexin V-positive and PI-negative),HL-60 cells [4],8.7 ± 0.57%
same,late apoptotic cells (Annexin V-positive and PI-positive),HL-60 cells [4],39.5 ± 1.16%
same,change in the number of apoptotic cells,HL-60 cells [4],not effective
same,population of cells with cleaved PARP,[5],13.5 ± 3.6%
same,morphological changes of the cells,HL-60 cells [6],induced several morphological changes
